Source: patent US20090325952A1, “PYRAZOLO[3,4-B]PYRIDINE COMPOUNDS, AND THEIR USE AS PDE4 INHIBITORS” (Glaxo Group Limited, priority 2006, published 2009)
Where a name gives a salt, the structure may show the parent alone.

Test system: LPS-induced pulmonary neutrophilia in rats
Assay: In Vivo Assay 1: LPS induced pulmonary neutrophilia in rats, intratracheal administration
Parameters: species or system rat
Conditions: rats; for mean inhibition of LPS-induced pulmonary neutrophilia: i.t. aqueous solution, about 2 hours prior to LPS; for estimated ED50 for inhibition of LPS-induced pulmonary neutrophilia: i.t., micronised, aqueous solution in 0.2% Tween 80 in PBS, about 2 hours prior to LPS challenge
Excerpt: This assay is an animal model of acute inflammation in the lung—specifically neutrophilia induced by lipopolysaccharide (LPS)—and allows the study of putative inhibition of such neutrophilia (anti-inflammatory effect) by an intratracheally (i.t.) administered PDE4 inhibitor (“drug”). The PDE4 inhibitors are suitably in dry powder, aqueous solution or aqueous suspension form. I.t. administration is one model of inhaled administration, allowing topical delivery to the lung.
Animals: Male CD (Sprague Dawley Derived) rats supplied by Charles River, United Kingdom are housed in groups of 5 rats per cage, acclimatised after delivery for at least 7 days with bedding/nesting material regularly changed, fed on SDS diet R1 pelleted food given ad lib, and supplied with daily-changed pasteurised animal grade drinking water.
Device for dry powder administration: For these studies, a Penn Century DP-4 dry powder intratracheal (i.t.) delivery device (insufflator) is used for administration of a dry powder blend of vehicle (inhalation grade lactose) and the PDE4 inhibitor compound or salt of the invention (“drug”). Each device is numbered and the sample loading chamber is unscrewed from the main device and weighed. The i.t. delivery needle is also weighed. The drug+lactose blend or inhalation grade lactose (vehicle control) is then added to the sample chamber and this is then re-weighed. The sample chamber is fitted back on to the main device to prevent any drug being lost. This procedure is repeated for all of the Penn century devices to be used in the study (one separate device for each animal). After dosing to the animals, the sample chambers and needles are re-weighed in order to determine the amount of sample that was expelled from the device.
Device for aqueous solution administration: A blunt dosing needle, whose forward end is slightly angled to the needle axis, is used, with a flexible plastic portex canula inserted into the needle. The portex cannula is inserted into the lumen of the blunt stainless steel dosing needle and this is carefully inserted into the back of the animal's throat and into the trachea via the larynx. A known volume (200 microlitres) of the vehicle (0.2% Tween 80™ in saline) or of the solution (or suspension) drug composition is administered into the trachea using a plastic syringe that is attached to the portex cannula and dosing needle. A new internal cannula is used for each different drug group. After dosing, the needle is removed from the trachea and the animals are removed from the table and continually observed until they recover from the effects of anaesthesia. The animals are then returned to the holding cages and given free access to food and water, and are observed and any unusual behavioural changes noted. (Aqueous suspensions can be handled generally similarly.)
Drugs and Materials: Lipopolysaccharide (LPS) (Serotype:0127:B8, e.g. from Sigma, UK; e.g. L3129 prepared by phenol extraction) is dissolved in phosphate-buffered saline (PBS).
For dry powder, aqueous solution or aqueous suspension administration, PDE4 inhibitors are preferably used in size-reduced (e.g. micronised) form, for example according to the Micronisation Example(s) disclosed herein.
For dry powder administration of the drug, the PDE4 inhibitor compound or salt of the invention (drug) is administered as a dry powder blended with inhalation-grade (respiratory-grade) lactose, i.e. as a dry powder composition. The target quantity of dry powder composition administered i.t. to each animal is 2 mg. This remains constant throughout the studies. To achieve different doses, blends of the drug dry powder and lactose, containing different concentrations of the PDE4 inhibitor compound or salt of the invention (drug), are prepared. […]

CCc1nc2c(cnn2CC)c(NC2CCOCC2)c1CNC(=O)c1ccc(NC(=O)CCCCCCCN(C)CCO)cc1 [Example 1A1, N-{[1,6-Diethyl-4-(tetrahydro-2H-pyran-4-ylamino)-1H-pyrazolo[3,4-b]pyridin-5-yl]methyl}-4-({8-[(2-hydroxyethyl)(methyl)amino]octanoyl}amino)benzamide dihydrochloride] was tested, and the “mean inhibition of LPS-induced pulmonary neutrophilia” value (“mean inhibition” for short) (about 10 micrograms/kg, dihydrochloride) was “about 33%”, the “mean inhibition” value (about 30 micrograms/kg, dihydrochloride) was “about 56%” and the “mean inhibition” value (about 100 micrograms/kg, dihydrochloride) was “about 76%”. The “mean inhibition” value (about 300 micrograms/kg) was “about 74%” and the “estimated ED50 for inhibition of LPS-induced pulmonary neutrophilia” value (dihydrochloride) was “approximately 12.3 micrograms/kg body weight”.
CCc1nc2c(cnn2CC)c(NC2CCOCC2)c1CNC(=O)c1ccc(NC(=O)CCCCCCCN(C)CCO)cc1 [Example 1B, N-{[1,6-diethyl-4-(tetrahydro-2H-pyran-4-ylamino)-1H-pyrazolo[3,4-b]pyridin-5-yl]methyl}-4-({8-[(2-hydroxyethyl)(methyl)amino]octanoyl}amino)benzamide] was tested, and the “mean inhibition” value (about 10 micrograms/kg) was “about 29%”, the “mean inhibition” value (about 30 micrograms/kg) was “about 75%” and the “mean inhibition” value (about 100 micrograms/kg) was “about 59%”. The “estimated ED50 for inhibition of LPS-induced pulmonary neutrophilia” value was “approximately 10.1 micrograms/kg body weight”.
